Laboratory results reported in ChEMBL document CHEMBL1799910, “Optimization of 1,2,3,4-tetrahydroacridin-9(10H)-ones as antimalarials utilizing structure-activity and structure-property relationships” (J Med Chem, 2011).
Converted amounts (≈) assume the structure as drawn.

Tests used:
[1] = Partition coefficient, log D of the compound at pH 7.4 by HPLC analysis; details: octanol/water
[2] = Aqueous solubility of compound at pH 7.4 by HPLC analysis; details: buffer
Plasmodium falciparum [3] = assay: Resistance index, ratio of EC50 for chloroquine, mefloquine, pyrimethamine and atovaquone-resistant Plasmodium falciparum TM90-C2B to EC50 for chloroquine and pyrimethamine-resistant Plasmodium falciparum W2; type: functional
[4] = Permeability of the compound by PAMPA method at pH 7.4; type: ADME; details: read-out: permeability
Plasmodium falciparum [5] = assay: Antimalarial activity against chloroquine, mefloquine, pyrimethamine and atovaquone-resistant Plasmodium falciparum TM90-C2B infected in human A positive erythrocytes after 72 hrs by SYBR Green I assay; type: functional, organism-based
[6] = Stability in mouse liver microsomes; type: ADME, Microsome; details: liver microsomes
Plasmodium falciparum [7] = assay: Antimalarial activity against chloroquine and pyrimethamine-resistant Plasmodium falciparum W2 infected in human A positive erythrocytes after 72 hrs by SYBR Green I assay; type: functional, organism-based; details: W2, 72 h
[8] = Cytotoxicity index, ratio of EC50 for mouse J774 cells to EC50 for chloroquine, mefloquine, pyrimethamine and atovaquone-resistant Plasmodium falciparum TM90-C2B; type: cell-based; details: read-out: Ratio EC50
J774 = assay: Cytotoxicity against mouse J774 cells after 72 hrs by Cell titer 96 aqueous one solution cell proliferation assay; type: cell-based; details: J774, 72 h

Compound	logD [1]	solubility [2]	Ratio EC50 (Plasmodium falciparum [3])	Papp [4]	EC50 (Plasmodium falciparum [5])	half-life [6]	EC50 (Plasmodium falciparum [7])	selectivity ratio [8]	EC50 (J774)
COc1ccc2c(=O)c3c([nH]c2c1)CCC(C)(C)C3	2.2	61 µM (≈ 15.7 µg/mL)	3.22	88 ×10⁻⁶ cm/s	0.175 µM	77 min	0.0543 µM	≥ 100	> 40 µM
COc1ccc2c(=O)c3c([nH]c2c1)CC(C)(C)CC3	2.2	92 µM (≈ 23.7 µg/mL)	0.32	64 ×10⁻⁶ cm/s	0.112 µM	24.8 min	0.355 µM	≥ 100	> 40 µM
O=c1c2c([nH]c3ccc(-c4ccc(COc5ccc(OC(F)(F)F)cc5)cc4)cc13)CCSC2	3.5	12 µM (≈ 5.8 µg/mL)	22	3 ×10⁻⁶ cm/s	2.84 µM		0.129 µM	≥ 100	> 10 µM
O=c1c2c([nH]c3ccc(-c4ccc(COc5ccccc5)cc4)cc13)CCSC2	2.8	1 µM (≈ 0.4 µg/mL)	15.9	7 ×10⁻⁶ cm/s	0.706 µM		0.0445 µM	≥ 100	> 1 µM
O=c1c2c([nH]c3ccc(-c4ccc(OCc5ccccc5)cc4)cc13)CCSC2	2.8	1 µM (≈ 0.4 µg/mL)	10.3	< 1 ×10⁻⁶ cm/s	0.37 µM		0.0359 µM	≥ 100	> 1 µM
O=c1c2c([nH]c3cc(-c4c(F)cccc4F)ccc13)CCCC2	3	0.3 µM (≈ 0.0934 µg/mL)	0.35	339 ×10⁻⁶ cm/s	0.0253 µM		0.0723 µM	≥ 100	> 0.1 µM
CN(C)c1ccc(-c2ccc3c(=O)c4c([nH]c3c2)CCCC4)cc1	1.3	11 µM (≈ 3.5 µg/mL)	1.62	199 ×10⁻⁶ cm/s	0.161 µM		0.0992 µM	≥ 100	> 10 µM
COc1ccc2c(=O)c3c([nH]c2c1)CCCC3	1.9	82 µM (≈ 18.8 µg/mL)	1.11	25 ×10⁻⁶ cm/s	0.0999 µM	6.8 min	0.0899 µM	≥ 100	> 40 µM
Cc1cccc2c(=O)c3c([nH]c12)CCCC3	1.9	47 µM (≈ 10 µg/mL)	0.4	26 ×10⁻⁶ cm/s	0.888 µM	6.4 min	2.2 µM	≥ 100	> 40 µM
Cc1ccc2c(=O)c3c([nH]c2c1)CCCC3	2	89 µM (≈ 19 µg/mL)	1.01	27 ×10⁻⁶ cm/s	0.152 µM	20.1 min	0.15 µM	≥ 100	> 40 µM
O=c1c2c([nH]c3cc(F)cc(F)c13)CCCC2	1.5	3 µM (≈ 0.706 µg/mL)	2.72	13 ×10⁻⁶ cm/s	0.045 µM	3.6 min	0.0165 µM	≥ 100	> 2 µM
COc1cc2[nH]c3c(c(=O)c2cc1Cl)CCCC3	2.2	17 µM (≈ 4.48 µg/mL)	0.79	85 ×10⁻⁶ cm/s	0.0241 µM		0.0306 µM	≥ 100	> 10 µM
COc1cc2[nH]c3c(c(=O)c2cc1Cl)CSCC3	1	13 µM (≈ 3.66 µg/mL)	4.94	101 ×10⁻⁶ cm/s	0.13 µM		0.0263 µM	≥ 100	> 10 µM
COc1cc2[nH]c3c(c(=O)c2cc1Cl)CC(F)(F)CC3	2.1	10 µM (≈ 3 µg/mL)	0.07	107 ×10⁻⁶ cm/s	0.0056 µM	8.5 min	0.0767 µM	≥ 100	> 10 µM
O=c1c2c([nH]c3ccc(Cl)cc13)CCC(F)(F)C2	2	4 µM (≈ 1.08 µg/mL)	1.52	62 ×10⁻⁶ cm/s	0.226 µM	40.8 min	0.148 µM	≥ 100	> 2 µM
COc1ccc2c(=O)c3c([nH]c2c1)CCC(F)(F)C3	1.6	14 µM (≈ 3.71 µg/mL)	1.02	39 ×10⁻⁶ cm/s	0.351 µM	15.8 min	0.343 µM	≥ 100	> 10 µM
COc1cc2[nH]c3c(c(=O)c2cc1C)CCCC3	2	23 µM (≈ 5.6 µg/mL)	0.46	50 ×10⁻⁶ cm/s	0.0162 µM		0.0348 µM	≥ 100	> 20 µM
COc1cc2[nH]c3c(c(=O)c2cc1C)CSCC3	0.9	14 µM (≈ 3.66 µg/mL)	0.86	68 ×10⁻⁶ cm/s	0.0969 µM		0.113 µM	≥ 100	> 10 µM
COc1cc2[nH]c3c(c(=O)c2cc1Cl)C[S+]([O-])CC3 (configuration not stated)	1.3				1.36 µM	990 min	4.71 µM		> 40 µM
O=c1c2c([nH]c3ccc(-c4ccncc4)cc13)CCSC2	0.8	45 µM (≈ 13.2 µg/mL)	0.8	15 ×10⁻⁶ cm/s	4.99 µM		6.21 µM	≥ 100	> 20 µM
O=c1c2c([nH]c3ccc(-c4cccnc4)cc13)CCSC2	0.8	37 µM (≈ 10.9 µg/mL)	1.11	3 ×10⁻⁶ cm/s	8.49 µM		7.62 µM	≥ 100	> 20 µM
O=c1c2c([nH]c3ccc(-c4ccc(F)cc4F)cc13)CCSC2	3.6	7 µM (≈ 2.31 µg/mL)	0.41	10 ×10⁻⁶ cm/s	0.0784 µM		0.193 µM	≥ 100	> 5 µM
O=c1c2c([nH]c3ccc(-c4ccc(OC(F)(F)F)cc4)cc13)CCSC2	2.5	1 µM (≈ 0.377 µg/mL)	0.61	< 1 ×10⁻⁶ cm/s	0.058 µM		0.0951 µM	≥ 100	> 1 µM
O=c1c2c([nH]c3ccc(-c4cccc(Oc5ccc(F)cc5)c4)cc13)CCSC2	2.8	0.3 µM (≈ 0.121 µg/mL)	3.5	2 ×10⁻⁶ cm/s	0.143 µM		0.0409 µM	≥ 100	> 0.1 µM
O=c1c2c([nH]c3ccccc13)CCCC2	3	24 µM (≈ 4.78 µg/mL)	0.45	10 ×10⁻⁶ cm/s	0.325 µM	18.2 min	0.719 µM	≥ 100	> 40 µM
